From ChEMBL document CHEMBL4406824, “Phenolic N-monosubstituted carbamates: Antitubercular and toxicity evaluation of multi-targeting compounds” (Eur J Med Chem, 2019) come the findings set out here.

Data set [1] concerns Mycobacterium kansasii. As to the kind of experiment: Antimycobacterial activity against Mycobacterium kansasii 6509/96 after 7 days. The conditions noted are these: 6509/96, 168 h. Type of data set: functional.
The subject of data set [2] is Mycobacterium tuberculosis. The data set is classed as functional. The conditions noted are these: H37Rv 331/88, 504 h.
In data set [3] the test system is Mycobacterium avium. As to the kind of experiment: Antimycobacterial activity against Mycobacterium avium 330/88 after 14 days. The data set is classed as functional. The following applies: 330/88, 336 h.
The subject of data set [4] is Mycobacterium kansasii. As to the kind of experiment: Antimycobacterial activity against Mycobacterium kansasii 6509/96 after 21 days. The following applies: 6509/96, 504 h. Type of data set: functional.
Data set [5] relates to Mycobacterium tuberculosis. The data set is classed as functional, H37Rv 331/88. Set-up: reference not given here.
The subject of data set [6] is Mycobacterium avium. As to the kind of experiment: Antimycobacterial activity against Mycobacterium avium 330/88 after 21 days. The data set is classed as functional. The following applies: 330/88, 504 h.
A short description of another data set: in vitro. The conditions noted are these: human, HepG2 cells.
Another data set concerns Mycolicibacterium aurum. As to the kind of experiment: Antimycobacterial activity against Mycobacterium aurum DSM 43999 after 72 hr by resazurin dye based microdilution method. The data set is classed as functional. The conditions noted are these: DSM 43999, 72 h. In general terms: Alamar Blue is a resazurin reagent that responds to reducing activity.
For data set [7], the system named is Mycobacterium kansasii. As to the kind of experiment: Antimycobacterial activity against Mycobacterium kansasii 235/80 after 14 days. The data set is classed as functional. The following applies: 235/80, 336 h.
Data set [8] relates to Mycobacterium kansasii. As to the kind of experiment: Potency index, ratio of p-aminosalicylic acid MIC to compound MIC for antimycobacterial activity against Mycobacterium kansasii 6509/96. The data set is classed as functional.
The subject of data set [9] is HepG2. As to the kind of experiment: Cytotoxicity against human HepG2 cells assessed as reduction in cell viability after overnight incubation by MTT assay. The data set is classed as cell-based. (In general: Tetrazolium dyes change colour on reduction, which living cells bring about.)
In data set [10] the test system is Mycobacterium kansasii. As to the kind of experiment: Antimycobacterial activity against Mycobacterium kansasii 235/80 after 7 days. The data set is classed as functional. The following applies: 235/80, 168 h.
The subject of data set [11] is Mycobacterium kansasii. As to the kind of experiment: Potency index, ratio of p-aminosalicylic acid MIC to compound MIC for antimycobacterial activity against Mycobacterium kansasii 235/80. Type of data set: functional.
For data set [12], the system named is Mycobacterium kansasii. As to the kind of experiment: Antimycobacterial activity against Mycobacterium kansasii 6509/96 after 14 days. Type of data set: functional. The conditions noted are these: 6509/96, 336 h.
In data set [13] the test system is Mycobacterium tuberculosis. Type of data set: functional. The conditions noted are these: H37Rv 331/88, 336 h.
Data set [14] deals with Mycobacterium tuberculosis H37Rv. As to the kind of experiment: Inhibition of recombinant Mycobacterium tuberculosis H37Rv ICL1 expressed in Escherichia coli BL21 (DE3) cells at 10 uM using (+)-potassium Ds-threo-isocitrate as substrate by glyoxylate phenyl hydrazone formation assay relative to control.
For data set [15], the system named is Mycobacterium kansasii. As to the kind of experiment: Antimycobacterial activity against Mycobacterium kansasii 235/80 after 21 days. Type of data set: functional. The conditions noted are these: 235/80, 504 h.
The test system of data set [16] is HepG2. As to the kind of experiment: Cytostatic activity against human HepG2 cells preincubated for overnight in serum free medium followed by compound wash out and further incubated for 72 hrs in presence of serum by MTT assay. Type of data set: ADME, cell-based.
In data set [17] the test system is Mycobacterium tuberculosis. As to the kind of experiment: Antimycobacterial activity against Mycobacterium tuberculosis H37Ra ITM-M006710 after 48 hr by resazurin dye based microdilution method. The data set is classed as functional. The following applies: H37Ra ITM-M006710, 48 h.
Data set [18] relates to Mycolicibacterium smegmatis. As to the kind of experiment: Antimycobacterial activity against Mycobacterium smegmatis DSM 43465 after 120 hr by resazurin dye based microdilution method. The data set is classed as functional. The following applies: DSM 43465, 120 h.

One may read the MIC as the lowest concentration found to suppress growth. Broadly, the IC50 is the concentration needed to halve the response being measured. Usually inhibition stands for the relative decrease from the control value, in per cent.

Values after ≈ are worked out from the molar mass of the structure shown.

Description for in vitro: Selectivity index, ratio of IC50 for human HepG2 cells to MIC for antimycobacterial activity against Mycobacterium tuberculosis H37Rv

Take `O=C(NCCc1ccccc1)Oc1ccc(Cl)cc1C(=O)Nc1ccc(Cl)cc1`: the MIC against Mycobacterium kansasii [1] was determined as 4 µM (≈ 1.72 µg/mL); in data set [2], 16 µM (≈ 6.87 µg/mL); against Mycobacterium avium [3], 8 µM (≈ 3.43 µg/mL); against Mycobacterium kansasii [4], 8 µM (≈ 3.43 µg/mL); against Mycobacterium avium [6] it was 8 µM (≈ 3.43 µg/mL); in the data set with Mycolicibacterium aurum, 1.56 µg/mL (≈ 3.63 µM). The MIC is 8 µM (≈ 3.43 µg/mL) in the data set with Mycobacterium kansasii [7]; 8 µM (≈ 3.43 µg/mL) against Mycobacterium kansasii [10]; 8 µM (≈ 3.43 µg/mL) in the data set with Mycobacterium kansasii [12]; 8 µM (≈ 3.43 µg/mL) in data set [13]; 16 µM (≈ 6.87 µg/mL) against Mycobacterium kansasii [15]; 1.56 µg/mL in [17]. In addition, 1.56 µg/mL (≈ 3.63 µM) was the least that counted as inhibitory in [18] (MIC). Further, the figures for the Ratio (in data set [5]; with Mycobacterium kansasii [8]; in the data set with Mycobacterium kansasii [11]) were greater than 125, greater than 250 and greater than 250, respectively. The selectivity ratio in the data set “in vitro” stood at 1.9. Further, the IC50 in the data set with HepG2 [9] is 15 µM; in the data set on HepG2 [16], 5.1 µM. Further, the inhibition in data set [14] turned out to be 10%.

For `O=C(NC12CC3CC(CC(C3)C1)C2)Oc1ccc(Cl)cc1C(=O)Nc1ccc(F)cc1`, the MIC with Mycobacterium kansasii [1] came out at 8 µM (≈ 3.54 µg/mL); in data set [2], 4 µM (≈ 1.77 µg/mL); against Mycobacterium avium [3] it was 32 µM (≈ 14.2 µg/mL); with Mycobacterium kansasii [4], 16 µM (≈ 7.09 µg/mL); against Mycobacterium avium [6] it was 32 µM (≈ 14.2 µg/mL); in the data set with Mycolicibacterium aurum, 1.98 µg/mL (≈ 4.47 µM). In addition, the MIC was determined as 8 µM (≈ 3.54 µg/mL) in the data set with Mycobacterium kansasii [7]; 8 µM (≈ 3.54 µg/mL) against Mycobacterium kansasii [10]; 8 µM (≈ 3.54 µg/mL) against Mycobacterium kansasii [12]; 4 µM (≈ 1.77 µg/mL) in data set [13]; 16 µM (≈ 7.09 µg/mL) against Mycobacterium kansasii [15]; 2.24 µM in [17]. Moreover, 1.98 µg/mL (≈ 4.47 µM) was the least that counted as inhibitory in data set [18] (MIC). In addition, the Ratio is reported as greater than 125 in data set [5], greater than 250 in the data set on Mycobacterium kansasii [8] and greater than 250 in the data set with Mycobacterium kansasii [11]. The selectivity ratio in the data set “in vitro” worked out at 31.3. The IC50 in the data set on HepG2 [9] and with HepG2 [16] was greater than 125 µM throughout. The inhibition in data set [14] came out at 14%.

For the compound `O=C(Nc1ccccc1)Oc1ccc(Cl)cc1C(=O)Nc1ccc(Br)cc1`, the MIC was determined as 4 µM (≈ 1.78 µg/mL) against Mycobacterium kansasii [1]; 16 µM (≈ 7.13 µg/mL) in data set [2]; 8 µM (≈ 3.57 µg/mL) against Mycobacterium avium [3]; 8 µM (≈ 3.57 µg/mL) against Mycobacterium kansasii [4]; 16 µM (≈ 7.13 µg/mL) in the data set on Mycobacterium avium [6]; 1.56 µg/mL (≈ 3.5 µM) in the data set on Mycolicibacterium aurum. In addition, the MIC against Mycobacterium kansasii [7] worked out at 8 µM (≈ 3.57 µg/mL); with Mycobacterium kansasii [10], 4 µM (≈ 1.78 µg/mL); against Mycobacterium kansasii [12] it was 8 µM (≈ 3.57 µg/mL); in data set [13] it was 8 µM (≈ 3.57 µg/mL); in the data set on Mycobacterium kansasii [15], 8 µM (≈ 3.57 µg/mL); in data set [17], 1.56 µg/mL. Besides, in [18], 1.56 µg/mL (≈ 3.5 µM) was the least that counted as inhibitory (MIC). The Ratio in data set [5] is greater than 125; in the data set with Mycobacterium kansasii [8] it was greater than 250; in the data set on Mycobacterium kansasii [11], greater than 250. Moreover, the selectivity ratio in “in vitro” is greater than 6.3. Moreover, the IC50 with HepG2 [9] is greater than 50 µM; in the data set with HepG2 [16], 5.45 µM. In addition, the inhibition in data set [14] is 17%.

Regarding `O=C(NC12CC3CC(CC(C3)C1)C2)Oc1ccc(Cl)cc1C(=O)Nc1ccc(Br)cc1`, the MIC with Mycobacterium kansasii [1] worked out at 4 µM (≈ 2.02 µg/mL); in data set [2], 8 µM (≈ 4.03 µg/mL); against Mycobacterium avium [3], 8 µM (≈ 4.03 µg/mL); in the data set on Mycobacterium kansasii [4], 8 µM (≈ 4.03 µg/mL); in the data set with Mycobacterium avium [6], 8 µM (≈ 4.03 µg/mL); with Mycolicibacterium aurum it was 1.56 µg/mL (≈ 3.1 µM). For the same compound, the MIC was 8 µM (≈ 4.03 µg/mL) against Mycobacterium kansasii [7]; 4 µM (≈ 2.02 µg/mL) against Mycobacterium kansasii [10]; 8 µM (≈ 4.03 µg/mL) in the data set on Mycobacterium kansasii [12]; 8 µM (≈ 4.03 µg/mL) in data set [13]; 8 µM (≈ 4.03 µg/mL) in the data set with Mycobacterium kansasii [15]; 1.56 µg/mL in data set [17]. 3.12 µg/mL (≈ 6.2 µM) was the least that counted as inhibitory in data set [18] (MIC). The Ratio in [5] is greater than 125; in the data set on Mycobacterium kansasii [8], greater than 250; with Mycobacterium kansasii [11], greater than 250. Also, the selectivity ratio in “in vitro” was found to be 0.5. Besides, the IC50 in the data set on HepG2 [9] worked out at 4.2 µM; with HepG2 [16] it was 4.35 µM. Further, in data set [14], the inhibition turned out to be 18%.

With `O=C(NCCc1ccccc1)Oc1ccc(Cl)cc1C(=O)Nc1ccc(Br)cc1`, the MIC was determined as 4 µM (≈ 1.9 µg/mL) in the data set with Mycobacterium kansasii [1]; 8 µM (≈ 3.79 µg/mL) in data set [2]; 8 µM (≈ 3.79 µg/mL) against Mycobacterium avium [3]; 8 µM (≈ 3.79 µg/mL) with Mycobacterium kansasii [4]; 8 µM (≈ 3.79 µg/mL) with Mycobacterium avium [6]; 1.56 µg/mL (≈ 3.29 µM) with Mycolicibacterium aurum. Also, the MIC in the data set with Mycobacterium kansasii [7] is 8 µM (≈ 3.79 µg/mL); with Mycobacterium kansasii [10], 4 µM (≈ 1.9 µg/mL); with Mycobacterium kansasii [12] it was 8 µM (≈ 3.79 µg/mL); in [13] it was 8 µM (≈ 3.79 µg/mL); against Mycobacterium kansasii [15], 8 µM (≈ 3.79 µg/mL); in data set [17], 1.65 µM. For the same compound, in data set [18], it took 3.12 µg/mL (≈ 6.6 µM) to inhibit growth (MIC). Further, the Ratio is greater than 125 in data set [5], greater than 250 in the data set with Mycobacterium kansasii [8] and greater than 250 in the data set on Mycobacterium kansasii [11]. Also, the selectivity ratio in “in vitro” was greater than 6.3. Also, the IC50 in the data set with HepG2 [9] is greater than 50 µM; in the data set on HepG2 [16] it was 2.2 µM. The inhibition in [14] stood at 17%.
